Experimental data: patent US7049337B2 (Wayne State University, priority 2000, dated 2006)
Like-named read-outs stand apart in the source and are kept apart here.

Experiments:
[1] = biological target: T1, human D2L receptor (Homo sapiens, UniProt P14416); test: [3H]spiperone binding to cloned human D2L receptors in HEK 293 cell membranes
T1 construct: expressed in transfected cells; host or cells: HEK 293 cells, stably transfected (Watts and colleagues, Oregon Health Sciences University); membranes prepared from the cells
T1 sequence (P14416 whole entry): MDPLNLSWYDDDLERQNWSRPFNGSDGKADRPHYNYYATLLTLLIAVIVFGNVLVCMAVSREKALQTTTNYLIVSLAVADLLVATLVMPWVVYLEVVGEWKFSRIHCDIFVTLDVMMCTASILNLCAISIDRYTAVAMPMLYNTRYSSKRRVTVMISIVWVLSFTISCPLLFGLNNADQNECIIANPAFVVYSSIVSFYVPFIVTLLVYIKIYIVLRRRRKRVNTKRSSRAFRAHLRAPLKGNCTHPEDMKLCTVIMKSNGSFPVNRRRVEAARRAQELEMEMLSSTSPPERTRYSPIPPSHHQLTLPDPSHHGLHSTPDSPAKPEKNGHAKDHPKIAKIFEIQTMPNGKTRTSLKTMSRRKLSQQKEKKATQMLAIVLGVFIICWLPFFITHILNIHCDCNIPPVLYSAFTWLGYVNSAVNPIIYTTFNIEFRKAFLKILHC
Description: (§1) The target compounds synthesized were assayed for differential CNS activity by binding studies employing cloned human receptors expressed in HEK cells. […] The compounds were evaluated for their binding at the D2 and D3 receptors.
(§2) Binding affinities of these novel compounds were assessed according to previously published procedures. V. J. Watts et al., EUR. J. PHARMACOL., 1993, 239,271; V. J. Watts et al., EUR. J. PHARMACOL., 1996, 50, 966. Human embryonic kidney (HEK) 293 cells were stably transfected with cDNA for the human D2L and D3 receptors by Watts and colleagues at Oregon Health Sciences University in accordance with published procedures; V. J. Watts, MOL. PHARMACOL, op. cit., and graciously shipped to the University of Illinois for receptor binding assays. Membranes were prepared from the cells as described previously, V. J. Watts et al., EUR. J. PHARMACOL., 1993, op. cit. […] (+)-Butaclamol (2 ,μM) was used to define nonspecific binding. Assays were terminated with a 24-pin Brandel harvester as described previously, M. E. A. Reith et al., BIOL. CHEM. 1986, 261, 7300. IC50 values were estimated by nonlinear regression analysis with the ALLFIT equation, and converted to inhibition constants (Ki) by the Cheng-Prusoff equation as in previous work, Reith et al., J. BIOL. CHEM., op. cit.

[2] = biological target: T2, human D3 receptor (Homo sapiens, UniProt P35462); test: [3H]spiperone binding to cloned human D3 receptors in HEK 293 cell membranes; settings: for D3 receptor activity compared with control, in words: displacing [3H]spiperone from D3 receptors in HEK cells, racemic compounds versus (+)-7-OH-DPAT; for D2L/D3L: ratio of Ki D2L to Ki D3; for Differential activity (D2L/D3) compared with control, in words: versus (+)-7-OH-DPAT control
T2 construct: expressed in transfected cells; host or cells: HEK 293 cells, stably transfected (Watts and colleagues, Oregon Health Sciences University); membranes prepared from the cells
T2 sequence (P35462 whole entry): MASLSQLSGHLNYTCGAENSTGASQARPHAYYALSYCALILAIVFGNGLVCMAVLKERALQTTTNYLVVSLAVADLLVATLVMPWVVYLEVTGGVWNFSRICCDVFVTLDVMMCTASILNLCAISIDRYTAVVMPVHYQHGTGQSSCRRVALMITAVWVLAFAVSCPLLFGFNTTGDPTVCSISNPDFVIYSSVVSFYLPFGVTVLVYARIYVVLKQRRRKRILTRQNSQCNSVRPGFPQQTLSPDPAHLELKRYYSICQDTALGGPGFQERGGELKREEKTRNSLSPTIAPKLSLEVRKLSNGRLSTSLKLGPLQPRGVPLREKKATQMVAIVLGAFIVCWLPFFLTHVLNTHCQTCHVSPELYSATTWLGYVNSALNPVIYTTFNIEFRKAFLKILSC
Description: as §1, §2

[3] = cloned human D2L in HEK cells, 0.4 nM [3H]spiperone, 1 h, 30° C., no GTP, mean ± spread (n)

SMILES | Ki [1, 3] [nM] | Ki [2] [nM] | D3 receptor activity compared with control, in words [2] | D2L/D3L [2] | Differential activity (D2L/D3) compared with control, in words [2] | Ki ([1]; read-out: D2L HEK Cells [^3H]spiperone, Ki, […] nM [3H]spiperone, 1 h, 30° C., no GTP, mean ± spread (n)) [nM] | Ki ([2]; read-out: D3 HEK Cells [^3H]spiperone, Ki, cloned human D3 in HEK cells, 0.4 nM [3H]spiperone, 1 h, 30° C., no GTP, mean ± spread (n)) [nM] | Ki ([2]; cloned human D3 in HEK cells, 0.4 nM [3H]spiperone, 1 h, 30° C., no GTP, mean ± spread (n)) [nM]
C#CCN(CC)C1CCc2ccc(O)cc2C1 (racemic) [Example 5, (R,S)-trans-7-Hydroxy-2-[N-propynyl-N-ethyl-amino]tetralin] | 1490 | 13.8 ± 2.8 | high activity, though not as high as the compound of Example 4 or the control | 108 | as high as the compound of Example 4 | – | – | –
C#CCN(CCCC)C1CCc2ccc(O)cc2C1 (racemic) [Example 4, (R,S)-trans-7-Hydroxy-2-[N-propynyl-N-(butyl-amino]tetralin] | 534 ± 72 | 4.9 ± 1.2 | about as active as the (+) isomer | 108 | slightly greater activity differential | – | – | –
C#CCN(CCc1ccc(F)cc1)C1CCc2ccc(O)cc2C1 (racemic) [Example 6, (R,S)-trans-7-Hydroxy-2-[N-propynyl-N-ethyl(4′-fluorophenyl)amino]tetralin] | 1610 | 14.5 ± 4.1 | – | 111 | about the same as the control | – | – | –
C#CCN(CCc1cccs1)C1CCc2ccc(O)cc2C1 (racemic) [Example 7, (R,S)-trans-7-Hydroxy-2-[N-propynyl-N-ethyl(thienyl)-amino]tetralin] | – | – | about the same as the control | 211 | more than double the activity differential of the control | 1700 | 8 ± 0.3 | –
C#CCN(CCCC#N)C1CCc2ccc(O)cc2C1 (racemic) [Example 8, (R,S)-trans-7-Hydroxy-2-[N-propynyl-N-(3′-cyano-1′-propyl)amino]tetralin] | 8310 | – | about the same as the control | 353 | more than double the activity differential of the control | – | – | 23.5 ± 4.7
